The values that follow come from patent publication EP4559916A1, “PHARMACEUTICALLY ACCEPTABLE SALT AND POLYMORPH OF SUBSTITUTED PYRAZOLO[1,5-A]PYRIMIDIN-7-AMINE DERIVATIVE AND USE THEREOF” (Shanghai Haiyan Pharmaceutical Technology Co., Ltd., priority 2022, dated 2024).

A short description of one data set: physchem. The following applies: water.
For a further data set, the target named is T1, CDK9/CycT (Homo sapiens, UniProt P50750).
T1 construct: purchased Carna Bioscience 04-110
Nature of the data set: LANCE Ultra kinase activity inhibition test, CDK9. The format is biochemical. The following applies: ATP 10 µM. The source says: In the following LANCE Ultra test method, kinase reagents were purchased from Carna Bioscience, reaction substrates and detection reagents were purchased from Perkin Elmer, and the remaining reagents were purchased from Thermo scientific.
The LANCE Ultra method was used to determine the inhibitory effect of the test substance on the kinase activity of CDK1/CycB (Carna bioscience, #04-102), CDK2/ CycA (Carna bioscience, #04-103), CDK9/CycT (Carna bioscience, #04-110).
Each kinase in the test included three test groups: background group (Blank), non-inhibition group (PC) and compound test group (Test). […]
After the addition of the test solution, it was placed on a shaker and incubated at room temperature for 1 h in the dark. […] The 665 nm/615 nm values (hereinafter referred to as the Ratio value) were calculated for all groups, and the inhibition rate was calculated based on the Ratio value of each group; 2. […] XLFIT 5.0 software (IDBS, UK) was used for fitting, with logarithmic values of compound concentrations as the X axis and inhibition rates as the Y axis, and IC50 values of compounds were calculated using a four-parameter model.
For orientation: Time-resolved FRET reads energy transfer from a long-lived donor to a nearby acceptor.

Data set [1] can be described thus: In vivo pharmacokinetic test in mice. The following applies: male ICR mice, gavage administration 10 mg/kg. As for the experimental part:
Test animals: healthy adult male ICR mice (weighing 30-40 g, 12 mice, intravenous injection group mice drinking water and diet ad libitum, gavage group fasting overnight, drinking water and diet ad libitum 4 h after administration), provided by Beijing Vital River Laboratory Animal Co. LTD;
Administration method and dosage: ICR mice were administered via caudal vein administration (2 mg/kg, 5% DMSO, pH 4.5 20% Captisol) and gavage administration (10 mg/kg, 5% DMSO, pH 4.5 20% Captisol).
Blood sampling: Animals meeting the experimental requirements were selected prior to administrating, weighed and labeled. Mice were bound prior to blood sampling, and each administrated mice was bled at a predetermined time point (caudal vein administration: blood samples were collected at 0.083 h, 0.25 h, 0.5 h, 1 h, 2 h, 4 h, 6 h, 7.5 h and 24 h after administration, totally 9 time points; gavage administration: blood samples were collected at 0.083 h, 0.25 h, 0.5 h, 1 h, 2 h, 4 h, 6 h, 7.5 h and 24 h after administration, totally 9 time points), and about 100 µL blood samples were collected through the orbit. The blood was transferred to a 1.5 mL test tube pre-added with K2EDTA, centrifuged for 4 min (8000 rpm, 4°C), and the plasma was removed. The whole process was completed within 15 min after blood collection. All samples were stored in a refrigerator at -20°C until sample analysis. LC/MS/MS method was used to determine drug concentrations.

Data set [2] deals with MV4 -11 acute myeloid leukemia. Nature of the data set: In vivo pharmacodynamic experiment, MV4-11 subcutaneous xenograft. Also noted: species or system BALB/c nude mice. The following applies: Oral, Once daily. The method, then:
In vivo pharmacodynamic experiments were performed on BALB/c nude mice subcutaneously implanted with MV4 -11 acute myeloid leukemia […] xenograft (CDX) based on human tumor cell lines.
Protocol: BALB/c nude mice, female, 6-10 weeks old, weighing approximately 20-23 grams, were maintained in a special pathogen-free environment and in individual ventilated cages (5 mice per cage, 2 cages of 10). All cages, bedding and water were disinfected prior to use. All animals had free access to standard certified commercial laboratory diets. […] Each mouse was implanted with tumor cells subcutaneously in the right flank (1×10^7 0.1 ml+Matrigel 0.1 ml) for tumor growth. When the average tumor volume reached about 165 cubic mm, randomization was performed according to body weight and tumor volume, and administration was started. The test compound was administered orally by gavage daily. Antitumor efficacy was determined by dividing the average tumor increase volume of animals treated with the compound by the average tumor increase volume of untreated animals.
Tumor volume was measured twice weekly with a two-dimensional caliper, and volumes were measured in cubic millimeters. Tumor volume TV=0.5a×b^2. Wherein, a is the long diameter of the tumor and b is the short diameter of the tumor.
T/C(%) is the percentage of the relative tumor volume (RTV) between the treatment group and the control group at a certain time point. The calculation Formula is as follows: T/C% = TRTV/CRTV×100% (TRTV: mean RTV of treatment group; CRTV: mean RTV of vehicle control group; RTV=Vt/V0, V0 is tumor volume of the animal at grouping, Vt is tumor volume of the animal after treatment). mpk is mg/kg body weight.
Body weight change (%) of tumor-bearing animals was calculated as follows: (body weight at measurement - body weight at grouping)/body weight at grouping × 100.

Data set [3] is described as follows: Solubility in 0.1 mol/L hydrochloric acid and pH 6.8 phosphate buffer, 24 h at 37°C. The format is physicochemical. Conditions: for solubility: 1440 min.
A short description of data set [4]: Dynamic vapor sorption (DVS) measurement. The format is physicochemical. Conditions: for weight gain due to moisture absorption: DVS, 80% RH, 25°C; for hygroscopicity: from DVS weight gain at 80% RH. As for the experimental part: Dynamic vapor sorption (DVS) curve: a dynamic vapor sorption curve was collected on a DVS Intrinsic of SMS (Surface Measurement Systems). The relative humidity at 25°C was calibrated using the deliquescent points of LiCl, Mg(NO3)2 and KCl.
(§1) Chinese Pharmacopoeia 2020, volume IV, 9103 Guidelines for Hygroscopicity Test of Drugs specifies the definition of hygroscopicity characteristics and hygroscopicity weight gain: (1) deliquescence: absorbing sufficient water to form a liquid; (2) extremely hygroscopicity: hygroscopicity weight gain of not less than 15%; (3) hygroscopicity: hygroscopicity weight gain of less than 15% but not less than 2%; (4) slightly hygroscopicity: hygroscopicity weight gain of less than 2% but not less than 0.2%; (5) no or almost no hygroscopicity: moisture gain is less than 0.2%.

Data set [5] is described as follows: Crystal form conversion: suspension shaking in ethanol. Type of data set: physicochemical. The following applies: ethanol (1 mL), sealed, shaken at 50°C and 150 r/min for seven days. The method, then:
(§2) The changes in crystal form were detected at day 7, day 20, day 30, and day 60, respectively. […] (2) About 40 mg of phosphate crystal form I (prepared with reference to Example 1 of the present application) was weighed into a glass vial , and ethanol (1 mL) was added thereto, the glass vial was sealed and shaken at 50°C and 150 r/min for seven days, then centrifuged to collect the solid and the solvent was evaporated. […] Samples were taken and the related substances were determined. […]

The nature of data set [6]: Rough solubility in pH 4.5 and pH 6.8 buffers at room temperature. Type of data set: physicochemical.
A short description of data set [7]: Chemical stability: related substances after 80°C for one week with water added. The following applies: for Phosphate content (80°C, 7 d): 25 mg sample with 5 mg water, oven at 80°C. Type of data set: physicochemical.
Data set [8] in a line: Stability test: changes in crystal form (XRPD) under high temperature and accelerated conditions. Type of data set: physicochemical. Conditions: for changes in crystal form: 60°C (high temperature) and 40°C to 75% RH (accelerated), day 7, day 20, day 30, day 60. The method, then:
X-ray powder diffraction (XRPD): in the present disclosure, the above crystalline or amorphous powder X-ray diffraction pattern was obtained by a known method in the art using an ARL Equinox3000 X-ray powder diffraction analyzer.
as §2

Data set [9] in a line: Hygroscopicity test according to Chinese Pharmacopoeia 2020, volume IV, 9103. Type of data set: physicochemical.
Description: as §1

Where [10] appears, read: listed as phosphate crystal form I of the compound of Formula (I).
Where [11] appears, read: listed as phosphate crystal form II of the compound of Formula (I).

By solubility is commonly meant how much of the substance goes into solution per volume. A word on the IC50: it is the midpoint of a concentration-inhibition curve. A lower IC50 goes with greater potency in that assay. By T/C is commonly meant the ratio of treated to control.

T1 sequence (P50750 whole entry): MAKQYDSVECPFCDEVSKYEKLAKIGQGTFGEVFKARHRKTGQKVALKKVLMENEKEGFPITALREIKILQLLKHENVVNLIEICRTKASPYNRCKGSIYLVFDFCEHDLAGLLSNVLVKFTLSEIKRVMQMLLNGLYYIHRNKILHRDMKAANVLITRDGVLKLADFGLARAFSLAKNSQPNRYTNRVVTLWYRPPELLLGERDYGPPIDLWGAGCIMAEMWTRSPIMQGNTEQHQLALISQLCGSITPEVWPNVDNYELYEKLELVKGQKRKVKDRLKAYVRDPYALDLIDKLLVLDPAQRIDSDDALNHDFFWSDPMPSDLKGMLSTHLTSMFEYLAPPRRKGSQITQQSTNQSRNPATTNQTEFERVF
T1 sequence (O60563 whole entry partner): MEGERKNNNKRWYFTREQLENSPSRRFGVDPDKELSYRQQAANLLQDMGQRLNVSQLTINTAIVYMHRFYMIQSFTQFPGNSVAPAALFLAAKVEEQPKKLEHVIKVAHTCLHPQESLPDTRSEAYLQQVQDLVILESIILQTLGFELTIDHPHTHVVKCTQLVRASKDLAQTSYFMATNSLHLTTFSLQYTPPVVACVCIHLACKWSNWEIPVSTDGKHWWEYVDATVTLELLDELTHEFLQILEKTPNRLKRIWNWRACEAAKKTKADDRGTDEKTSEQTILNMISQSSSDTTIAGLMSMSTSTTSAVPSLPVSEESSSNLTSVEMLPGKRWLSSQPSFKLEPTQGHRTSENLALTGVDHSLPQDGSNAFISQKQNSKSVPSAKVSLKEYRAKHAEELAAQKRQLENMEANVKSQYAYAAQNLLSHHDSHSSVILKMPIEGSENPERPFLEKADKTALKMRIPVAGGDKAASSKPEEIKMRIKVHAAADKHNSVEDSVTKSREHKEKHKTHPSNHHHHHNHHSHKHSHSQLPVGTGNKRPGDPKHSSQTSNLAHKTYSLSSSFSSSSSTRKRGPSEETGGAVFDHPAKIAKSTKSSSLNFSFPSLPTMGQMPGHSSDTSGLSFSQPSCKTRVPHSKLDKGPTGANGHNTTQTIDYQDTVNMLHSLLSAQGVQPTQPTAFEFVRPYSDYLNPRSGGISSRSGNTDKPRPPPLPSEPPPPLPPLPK

Regarding `C[C@H](c1cc(N[C@H]2CC[C@H](N)C2)n2nccc2n1)C1CCC1` [phosphate], the solubility in “physchem” was at most 26.6 mg/mL.
For the compound `C[C@H](c1cc(N[C@H]2CC[C@H](N)C2)n2nccc2n1)C1CCC1` [The compound of Formula (I), (1S,3S)-N1-(5-((S)-1-cyclobutylethyl)pyrazolo[1,5-a]pyrimidin-7-yl)cyclopentan-1,3-diamine], at CDK9/CycT, the half-inhibitory concentration (IC50) was 0.012 µM. Moreover, in data set [1] (mouse, plasma, po, read-out: Area under the curve for oral administration AUC0-t), the AUC(0-t) is 2960 ng·h/mL. Besides, the Cmax in data set [1] (mouse, plasma, po, read-out: Maximum oral plasma concentration Cmax) came to 379 ng/mL. In data set [2] (12.5 mpk), this compound gave a Mean tumor weight of 0.17 g and a T/C of 21.50%. In [2] (25 mpk), the Mean tumor weight was determined as 0.01 g and the T/C was determined as 1.40%.
Consider `C[C@H](c1cc(N[C@H]2CC[C@H](N)C2)n2nccc2n1)C1CCC1` [Phosphate crystal form I], for which the solubility at 24 h in data set [3] (0.1n hcl) was 22.5 mg/mL. Also, the solubility at 24 h in [3] (phosphate buffer, pH 6.8, pH 6.8 phosphate buffer) is 22.5 mg/mL. Also, in data set [4] (setting [10]), the “weight gain due to moisture absorption” value is on record as 9% and the hygroscopicity result is “hygroscopicity (hygroscopicity weight gain of less than 15% but not less than 2%)”. The “crystal form of the obtained solid (XRPD)” value in [5] is “phosphate crystal form II”. In [6] (acetate buffer, pH 4.5, rough solubility, pH 4.5 buffer (acetic acid-sodium acetate system), read-out: Solubility in pH 4.5 buffer), the solubility is at most 33 mg/mL. Also, in data set [6] (phosphate buffer, pH 6.8, rough solubility, pH 6.8 buffer (sodium dihydrogen phosphate-sodium hydroxide system), read-out: Solubility in pH 6.8 buffer), the solubility is at most 24.5 mg/mL. Also, in data set [7], the “Phosphate content (0 d)” value is reported as 99.64 and the “Phosphate content (80°C, 7 d)” value is recorded as 98.66. In [8], the “changes in crystal form” value was “no obvious changes”. Further, the “change of XRPD pattern” value in [8] (high temperature conditions, 7 days and 30 days, Figure 16) is “no obvious change”.
Consider `C[C@H](c1cc(N[C@H]2CC[C@H](N)C2)n2nccc2n1)C1CCC1` [L-tartrate], for which, in data set [9], the hygroscopicity result is “slight hygroscopicity”.
Take `C[C@H](c1cc(N[C@H]2CC[C@H](N)C2)n2nccc2n1)C1CCC1` [L-tartrate crystal form I]: in [6] (rough solubility, pH 4.5 buffer (acetic acid-sodium acetate system)), the “Solubility in pH 4.5 buffer” value is at most 43.3 mg/mL. Moreover, in data set [6] (rough solubility, pH 6.8 buffer (sodium dihydrogen phosphate-sodium hydroxide system)), the “Solubility in pH 6.8 buffer” value was at most 21.8 mg/mL. In addition, the “changes in crystal form” value in data set [8] is “no obvious changes”. In addition, the “change of XRPD pattern” value in data set [8] (accelerated conditions (40°C-75% RH), 7 days and 2 months (60 days), FIG. 15) was “no obvious change”; in data set [8] (high temperature conditions (60°C), 7 days and 2 months (60 days)) it was “no obvious change”.
Turning to `CCC(CC)c1cc(N[C@H]2CC[C@H](N)C2)n2nccc2n1` [Compound D, reference compound], in data set [1], the “Area under the curve for oral administration AUC0-t” value was determined as 1191 ng·h/mL and the “Maximum oral plasma concentration Cmax” value was 433 ng/mL. In [2] (12.5 mpk), this compound displayed a Mean tumor weight of 0.35 g and a T/C of 45.04%. In [2] (25 mpk), this compound showed a Mean tumor weight of 0.02 g and a T/C of 2.04%.
Compound `C[C@H](c1cc(N[C@H]2CC[C@H](N)C2)n2nccc2n1)C1CCC1` [Phosphate crystal form II] came in with a solubility in [3] (0.1N HCl) of 39.14 mg/mL. In addition, in data set [3] (pH 6.8 phosphate buffer), the solubility came out at 33.63 mg/mL. Also, in [4], the “weight gain due to moisture absorption” value amounted to 0.45% and the hygroscopicity result is given as “slight hygroscopicity”. In addition, in [4] (setting [11]), the “weight gain due to moisture absorption” value was determined as 0.45% and the hygroscopicity entry is on record as “slight hygroscopicity”. For the same compound, in data set [7], the “Phosphate content (0 d)” value came out at 99.64 and the “Phosphate content (80°C, 7 d)” value is given as 98.73. Further, the “changes in crystal form” value in data set [8] is “no obvious changes”.
